Patent publication US20070213291A1, “Therapeutically useful synthetic oligonucleotides” (priority 1999, published 2007)

What was measured:
Assay type in all cases: cell-based
[1] = tested on: Jurkat human leukemia T cells; test: Inhibition of Jurkat human leukemia T cell proliferation (MTT reduction); conditions: 100 μg/ml sequence, 48 h, 2.5×10^5 cells/ml
How it was run: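 Read-out is MTT absorbance at 570 nm after 48 h. Sequences of 2 to 45 bases (A, C, G, T) tested at 100 μg/ml against untreated control, with 2.5×10^5 Jurkat cells/ml held at 37° C under 5% CO2.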

[2] = tested on: LNCaP human prostate cancer cells; test: Inhibition of LNCaP cell proliferation (MTT); conditions: 100 μg/ml, 48 h, 5×10^5 cells/ml
Procedure: (§1) Cells were seeded in 6 (1 ml/well), 24 (0.5 ml/well) or 96 (0.1 ml/well) well flat-bottom microplates and were maintained at 37° C. in a 5% CO2 atmosphere. Unless stated otherwise, 2.5×10^5 cells/ml were incubated with 0 μg/ml (control) and 100 μg/ml (treated) of 2 to 45 base sequences containing A, C, G and T for 48 h.
(§2) Cell proliferation was measured using dimethylthiazol-diphenyl-tetrazolium (MTT) reduction (Mosman et al. J. Immunol. Methods 65:55, 1983). MTT was measured at a wavelength of 570 nm using a multiplate spectrophotometer reader (ELX800, Bio-TEK Instruments Inc., Winooski, Vt.).
LNCaP prostate cancer cells are a TGF-beta 1 receptor negative, […], metastatic human solid tumor model. LNCaP cells (5×10^5 cells/ml) were incubated with 6 base GT sequences (Table 9).

[3] = tested on: THP-1 human acute monocytic leukemia cells; test: Cytokine production by THP-1 cells (ELISA); conditions: THP-1, 1×10^6 cells, 100 μg/ml, 48 h; for ↑ IL-12 (fold increase treated vs control cells): p70 complex and free p40
How it was run: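 Read-out is fold increase in supernatant cytokine versus control cells, measured by ELISA (IL-12 ELISA counts p70 complex plus free p40). Unless noted, sequences were tested at 100 μg/ml on 1×10^6 cells, incubated 48 h, 37° C, 5% CO2.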

[4] = tested on: MCF-7 human breast cancer cells; test: Inhibition of MCF-7 cell proliferation (MTT); conditions: 100 μg/ml, 48 h, 5×10^5 cells/ml
Procedure: as §1, §2
MCF-7 human breast cancer cells are a caspase 3 negative, estrogen-dependent human solid tumor model. MCF-7 cells (5×10^5 cells/ml) were incubated with 3 and 6 base GT sequences (Table 7).

[5] = tested on: human peripheral blood mononuclear cells; test: Cytokine production by human PBMC (ELISA); conditions: PBMC of 7 healthy humans, 100 μg/ml, 48 h
Procedure: (§3) Unless stated otherwise, 1×10^6 cells were incubated with 100 μg/ml of each of the sequences tested for 48 h at 37° C. in 5% CO2. Production of cytokines IL-6, IL-10, IL-12, IL-1beta and TNF-alpha was determined in pg/ml in 100 μl of culture supernatant using the appropriate commercial ELISA (BioSource, Camarillo Calif.). The IL-12 ELISA measures both IL-12 p70 complex and free p40 subunit. Results are expressed as the “fold” (×) increase in cytokine production by treated cells compared to control cells.
Peripheral blood mononuclear cells (hereinafter, “PBMCs”) were isolated from 7 healthy humans by Ficoll-Hypaque (Amersham Pharmacia Biotech, Baie d'Urfée, Québec, Canada) by density gradient centrifugation of whole blood. PBMCs were incubated with 6 base GT, AGT, CGT, AG, CG and GG sequences and production of the cytokines IL-1beta, IL-6, IL-10 and IL-12 were determined.

[6] = tested on: Jurkat human leukemia T cells; test: NuMA release into supernatant (ELISA); conditions: Jurkat, 50 μM sequence
Procedure: (§4) The redistribution of phosphatidylserine in the plasma membrane during apoptosis was measured by flow cytometry using FITC-conjugated annexin V (BD Pharmingen, San Diego, Calif.). NuMA release into the supernatant was determined using a commercial ELISA kit (Oncogen/Calbiochem, Cambridge, Mass.).
Jurkat human leukemia T cells were incubated with 50 μM of 3, 4, 5, 6 and 7 GT base sequences, a 5 base ACGT sequence, 6 base AG, GG, AGT and CGT sequences and a 7 base GG sequence.
Jurkat human leukemia T cells (1×10^6/ml) were incubated with 6 and 27 GT base sequences (Table 32). NuMA was determined as in Example 23.
Jurkat human cell leukemia T cells were incubated for 24 h with 6 base GT SEQ ID NO:25, complementary 6 base AC SEQ ID NO:79, and 6 base GT SEQ ID NO:25+6 base AC SEQ ID NO:79. GT SEQ ID NO:25 and AC SEQ ID NO:79 were hybridized by mixing the sequences (1:1) and heating for 10 minutes at 65° C. As controls, GT SEQ ID NO:25 and AC SEQ ID NO:79 were heated for 10 minutes at 65° C. (Table 33). Apoptosis was evaluated as in Example 23.

chimpanzee PBMCs = test: Cytokine production by chimpanzee PBMC (ELISA); conditions: PBMC of 4 healthy chimpanzees, 100 μg/ml, 48 h
Procedure: as §3
PBMCs were isolated from 4 healthy chimpanzees as in Example 35. Chimpanzee PBMCs were incubated with 6 base GT, AGT, CGT, AG, CG and GG sequences and production of the cytokines IL-10, IL-12 and TNF-alpha was determined (Table 41).

rhesus monkey PBMCs = test: Cytokine production by rhesus monkey PBMC (ELISA); conditions: PBMC of 4 healthy rhesus monkeys, 100 μg/ml, 48 h
Procedure: as §3
PBMCs were isolated from 4 healthy rhesus monkeys as in Example 35. PBMCs were incubated with 6 base GT, AGT, CGT, AG, CG ands GG sequences and production of the cytokines IL-6, IL-12 and TNF-alpha was determined (Table 42).

[7] = tested on: Jurkat human leukemia T cells; test: Apoptosis by phosphatidylserine/annexin V-FITC flow cytometry; conditions: 50 μM sequence
Procedure: as §4
Jurkat human leukemia T cells were incubated with 50 μM of 3, 4, 5, 6 and 7 GT base sequences, a 5 base ACGT sequence, 6 base AG, GG, AGT and CGT sequences and a 7 base GG sequence. […]
Jurkat human leukemia T cells were incubated with GT-rich or AC-rich sequences derived from the murA gene of Mycobacterium phlei (GenBank: Accession Number X99776). Inhibition of proliferation was measured by the reduction of MTT as in Example 3, cell cycle arrest was detected by flow cytometry using propidium iodide as in Example 21 and apoptosis was evaluated by flow cytometry using annexin-V-FITC as in Example 23.

[8] = tested on: PC-3 human prostate cancer cells; test: Inhibition of PC-3 cell proliferation (MTT); conditions: 100 μg/ml, 48 h, 5×10^5 cells/ml
Procedure: as §1, §2
PC-3 prostate cancer cells are a p53 mutated, androgen-independent human solid tumor model. PC-3 cells (5×10^5 cells/ml) were incubated with 3 and 6 base GT sequences (Table 8).

| Sequence | % INHIBITION of Jurkat human leukemia T cell proliferation [1] | % INHIBITION of LNCaP human prostate cancer cell proliferation [2] | ↑ IL-12 (fold increase treated vs control cells) [3] | % INHIBITION of MCF-7 human breast cancer cell proliferation [4] | IL-1 beta fold increase: mean +/− SD [5] | IL-6 fold increase: mean +/− SD [5] | IL-10 fold increase: mean +/− SD [5] | IL-12 fold increase: mean +/− SD [5] | % NuMA released (treated vs untreated cells) [6] | IL-10 fold increase: mean +/− SD (chimpanzee PBMCs) | IL-12 fold increase: mean +/− SD (chimpanzee PBMCs) | TNF-alpha fold increase: mean +/− SD (chimpanzee PBMCs) | IL-10 fold increase: mean +/− SD (rhesus monkey PBMCs) | IL-12 fold increase: mean +/− SD (rhesus monkey PBMCs) | TNF-alpha fold increase: mean +/− SD (rhesus monkey PBMCs) | ↑ IL-6 (fold increase treated vs control cells) [3] | % of cells in apoptosis (positive for PS/A-V staining) [7] | % INHIBITION of PC-3 human prostate cancer cell proliferation [8] |
| --- | --- | --- | --- | --- | --- | --- | --- | --- | --- | --- | --- | --- | --- | --- | --- | --- | --- | --- |
| GGTGGG [SEQ ID NO:24 phosphorothioate] | 6% | −17% | −0.1x | 12% | – | – | – | – | – | – | – | – | – | – | – | – | – | – |
| TTTGTT [SEQ ID NO:23 phosphorothioate] (phosphorothioate backbone) | 4% | −11% | 0.1x | 8% | – | – | – | – | – | – | – | – | – | – | – | – | – | – |
| CCGTCC [SEQ ID NO:28] | 11% | – | 3.8x | – | 2.1 +/− 1.8 fold increase | 10.4 +/− 13.0 fold increase | 1.0 +/− 0.1 fold increase | 5.9 +/− 10.7 fold increase | 0% | 3.8 +/− 2.8 fold increase | 13.3 +/− 8.4 fold increase | 10.3 +/− 5.7 fold increase | 1.1 +/− 0.2 fold increase | 10.1 +/− 3.7 fold increase | 14.2 +/− 3.7 fold increase | 12.6x | 6% | – |
| TGTGTG [SEQ ID NO:9 phosphorothioate] (phosphorothioate backbone) | −17% | −16% | −0.1x | 6% | – | – | – | – | – | – | – | – | – | – | – | – | – | – |
| AAGTAA [SEQ ID NO:27] | 13% | – | 6.0x | – | 1.3 +/− 0.5 fold increase | 9.6 +/− 7.3 fold increase | 1.0 +/− 0.1 fold increase | 2.4 +/− 2.2 fold increase | 56% | 2.1 +/− 1.1 fold increase | 13.2 +/− 8.2 fold increase | 7.9 +/− 3.9 fold increase | 0.9 +/− 0.1 fold increase | 7.6 +/− 2.6 fold increase | 6.0 +/− 5.0 fold increase | 12.8x | 20% | – |
| TGT (chemistry not given here) [SEQ ID NO:7] | 22% | – | – | −6% | – | – | – | – | 35% | – | – | – | – | – | – | 2.7x | 10% | 8% |
| GTGTGT [SEQ ID NO:10 phosphorothioate] | 0% | −20% | −0.2x | 12% | – | – | – | – | – | – | – | – | – | – | – | – | – | – |
| GGGGGG [SEQ ID NO:44] | 26% | – | 0.0x | – | 7.1 +/− 9.4 fold increase | 21.0 +/− 14.7 fold increase | 1.7 +/− 1.6 fold increase | 7.0 +/− 12.5 fold increase | 0% | 11.2 +/− 9.1 fold increase | 15.1 +/− 10.0 fold increase | 13.8 +/− 6.5 fold increase | 2.1 +/− 1.0 fold increase | 10.7 +/− 5.6 fold increase | 13.9 +/− 8.5 fold increase | 15.1x | 5% | – |
| GGGCGG (unmodified DNA) [SEQ ID NO:46] | 23% | – | 2.3x | – | 1.2 +/− 0.3 fold increase | 15.8 +/− 16.2 fold increase | 1.0 +/− 0.1 fold increase | 3.0 +/− 3.8 fold increase | 11% | 4.7 +/− 3.4 fold increase | 15.8 +/− 10.4 fold increase | 14.1 +/− 6.6 fold increase | 1.2 +/− 0.2 fold increase | 11.0 +/− 4.4 fold increase | 16.8 +/− 4.1 fold increase | 9.8x | 16% | – |
| TTGTTT [SEQ ID NO:26 phosphorothioate] | 0% | −1% | −0.1x | 6% | – | – | – | – | – | – | – | – | – | – | – | – | – | – |
